From ChEMBL document CHEMBL2074025 (AIDS, 2002)

Assays:
Assay type in all cases: functional, cell-based
[1] = target: T1, Multidrug resistance-associated protein 1 (Homo sapiens, UniProt P33527); test: TP_TRANSPORTER: inhibition of Calcein efflux (Calcein: 0.05 micro;M, Amprenavir: 0.02 uM) in UMCC-1/VP cells
[2] = target: T1, Multidrug resistance-associated protein 1; test: TP_TRANSPORTER: inhibition of Calcein efflux (Calcein: 0.05 micro;M, Lamivudine: 0.55 uM) in UMCC-1/VP cells
[3] = target: T1, Multidrug resistance-associated protein 1; test: TP_TRANSPORTER: inhibition of Calcein efflux (Calcein: 0.05 micro;M, Indinavir: 0.114 uM) in UMCC-1/VP cells
[4] = target: T1, Multidrug resistance-associated protein 1; test: TP_TRANSPORTER: inhibition of Calcein efflux (Calcein: 0.05 micro;M, Zidovudine: 0.02 uM) in UMCC-1/VP cells

T1 sequence (P33527 whole entry): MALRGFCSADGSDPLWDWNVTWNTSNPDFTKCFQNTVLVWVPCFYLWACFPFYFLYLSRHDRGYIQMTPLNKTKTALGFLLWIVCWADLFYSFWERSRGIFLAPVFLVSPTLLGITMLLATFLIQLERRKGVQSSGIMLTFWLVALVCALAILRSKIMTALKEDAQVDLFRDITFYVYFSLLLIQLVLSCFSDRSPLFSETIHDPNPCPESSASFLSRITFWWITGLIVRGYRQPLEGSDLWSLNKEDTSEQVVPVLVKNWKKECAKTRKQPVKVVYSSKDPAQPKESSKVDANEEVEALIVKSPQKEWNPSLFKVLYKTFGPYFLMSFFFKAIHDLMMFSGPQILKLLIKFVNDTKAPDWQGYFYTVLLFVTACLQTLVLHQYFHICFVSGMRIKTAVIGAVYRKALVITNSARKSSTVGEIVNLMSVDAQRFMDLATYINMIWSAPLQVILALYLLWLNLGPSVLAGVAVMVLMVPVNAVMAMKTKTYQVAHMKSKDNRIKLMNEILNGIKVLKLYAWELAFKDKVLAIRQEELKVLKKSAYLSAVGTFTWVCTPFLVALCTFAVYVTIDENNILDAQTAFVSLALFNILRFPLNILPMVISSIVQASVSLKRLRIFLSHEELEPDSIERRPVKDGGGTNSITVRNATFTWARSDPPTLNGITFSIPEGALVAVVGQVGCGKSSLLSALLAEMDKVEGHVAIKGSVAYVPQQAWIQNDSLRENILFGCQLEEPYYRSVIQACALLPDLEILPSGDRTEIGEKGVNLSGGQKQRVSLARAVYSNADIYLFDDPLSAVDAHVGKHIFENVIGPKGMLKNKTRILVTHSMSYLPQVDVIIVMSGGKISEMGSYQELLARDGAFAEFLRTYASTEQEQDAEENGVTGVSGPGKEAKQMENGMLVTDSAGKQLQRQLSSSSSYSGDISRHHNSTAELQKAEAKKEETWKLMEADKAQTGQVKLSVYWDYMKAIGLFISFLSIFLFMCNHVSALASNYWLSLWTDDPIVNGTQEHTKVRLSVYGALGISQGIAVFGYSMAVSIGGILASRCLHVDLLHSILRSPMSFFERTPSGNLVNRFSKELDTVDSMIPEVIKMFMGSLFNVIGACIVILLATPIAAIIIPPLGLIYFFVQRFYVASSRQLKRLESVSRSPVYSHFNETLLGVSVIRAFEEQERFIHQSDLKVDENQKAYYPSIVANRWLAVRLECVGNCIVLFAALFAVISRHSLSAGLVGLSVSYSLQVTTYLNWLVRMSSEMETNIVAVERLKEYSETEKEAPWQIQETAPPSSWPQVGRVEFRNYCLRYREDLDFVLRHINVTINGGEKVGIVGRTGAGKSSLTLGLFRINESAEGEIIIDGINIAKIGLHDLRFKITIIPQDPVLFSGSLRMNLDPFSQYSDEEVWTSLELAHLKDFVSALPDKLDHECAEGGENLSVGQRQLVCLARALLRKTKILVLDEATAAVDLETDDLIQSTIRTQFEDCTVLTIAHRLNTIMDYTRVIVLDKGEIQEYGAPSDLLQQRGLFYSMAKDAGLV

`CC(C)CN(C[C@@H](O)[C@H](Cc1ccccc1)NC(=O)O[C@H]1CCOC1)S(=O)(=O)c1ccc(N)cc1` was tested, and the Activity [1] was “is not an inhibitor [-]”.
In the case of `Nc1ccn([C@@H]2CS[C@H](CO)O2)c(=O)n1` [LAMIVUDINE], the Activity [2] was “is not an inhibitor [-]”.
In the case of `CC(C)(C)NC(=O)[C@@H]1CN(Cc2cccnc2)CCN1C[C@@H](O)C[C@@H](Cc1ccccc1)C(=O)N[C@H]1c2ccccc2C[C@H]1O.O`, the Activity [3] was “is not an inhibitor [-]”.
For `Cc1cn([C@H]2C[C@H](N=[N+]=[N-])[C@@H](CO)O2)c(=O)[nH]c1=O` [ZIDOVUDINE], the Activity [4] was “is not an inhibitor [-]”.
